Source: paper PMC10385743
Like-named read-outs stand apart in the source and are kept apart here.

Tests used:
[1] = test system: HCV GT 3a (strain S52) subgenomic replicon; experiment: microbe, parasite or virus in culture; assay type: cell-based, hepatitis C virus; conditions: Hepatitis C virus, GT3A, 72 h, luciferase, mean ± SD, read-out: Huh7.5-3a(S52) (HCV Replicon 3a) EC50
[2] = test system: HCV GT 4a (strain ED43) subgenomic replicon; experiment: microbe, parasite or virus in culture; assay type: cell-based, hepatitis C virus; conditions: for EC50: 72 h, luciferase, mean ± SD, read-out: Huh7.5-4a(ED43) (HCV Replicon 4a) EC50
[3] = test system: YFV (strain 17D) subgenomic replicon; experiment: microbe, parasite or virus in culture; assay type: cell-based, yellow fever virus; conditions: Yellow fever virus, 72 h, read-out: Huh7-YF (YFV Replicon 17D) EC50
[4] = test system: DENV serotype 2 (strain 16681) subgenomic replicon; experiment: microbe, parasite or virus in culture; assay type: cell-based, dengue virus; conditions: Dengue virus, DENV2; 72 h; luciferase; mean ± SD; read-out: Huh7-D2 (DENV-2 Replicon) EC50
HCV GT 1b (Con1) = experiment: Combinatory activity of 34 with daclatasvir (DCV) in Huh5-2 replicon cells, F-Luc activity; assay type: cell-based, hepatitis C virus
Description: The Huh5-2 replicon cell line was treated with compound 34 in the presence or absence of daclatasvir (DCV) to test its effectiveness in combination with an authorized NS5A inhibitor (DCV) (Figure 6).
Figure 6 Combinatory activity of 34 with DCV against HCV GT 1b (Con1). Huh5-2 cells were treated or not with the analog in the presence or absence of 20 pM DCV. F-Luc activity was measured and calculated as relative light units (RLU) per μg of total protein. […] CDI: coefficient of drug interaction. […] Error bars represent standard deviation (SD). TEXT PRINTED IN THE PICTURE: DCV + 34: CDI: 1.09 (1μM); CDI: 0.91 (2μM)

[5] = test system: bloodstream form T. b. brucei (strain 221); conditions: for SI (CC50 for L6 cells / EC50 for T. brucei): selectivity index; for increase in activity against T. brucei relative to parent compound: 38, 40, 41 versus parent 36, 42 versus parent 37; for EC50: read-out: T. brucei EC50, cultured bloodstream form, mean of triplicate experiments ± SEM
[6] = test system: bloodstream form T. b. brucei (strain 221); experiment: microbe, parasite or virus in culture; conditions: Trypanosoma brucei, mean of triplicate experiments ± SEM; for EC50: read-out: T. brucei EC50, cultured bloodstream form; for EC90: read-out: T. brucei EC90, cultured bloodstream form
[7] = test system: T. cruzi (CL Brener strain) epimastigotes; experiment: microbe, parasite or virus in culture; conditions: Trypanosoma cruzi; for EC50: read-out: T. cruzi EC50; for EC90: read-out: T. cruzi EC90
[8] = Cytotoxicity against cultured L6 cells (resazurin); conditions: rat, L6 rat skeletal myoblast cells, L6 Cells CC50, mean of triplicate experiments ± SEM
[9] = test system: rat skeletal myoblast L6 cells; experiment: Cytotoxicity against cultured L6 cells (resazurin); conditions: read-out: L6 Cells CC50; mean of triplicate experiments ± SEM
[10] = test system: HCV GT1b (Con1) replicon RNA; conditions: Hepatitis C virus, Huh-5-2, read-out: HCV RNA EC50
[11] = Cytotoxicity in Huh5-2 replicon cells (intracellular ATP levels); conditions: human
[12] = test system: T. cruzi (CL Brener strain) epimastigotes; conditions: selectivity index
[13] = test system: bloodstream form T. b. brucei (strain 221); conditions: cited from earlier work
HCV = test system: HCV; design: method as in doi:10.1039/C5MD00439J; conditions: read-out: Antiviral activity (Hepatitis C) EC50; cited from earlier work
[14] = test system: T. cruzi (CL Brener strain) epimastigotes; design: method as in PMID 31303998; conditions: lead compound; cited from earlier work
[15] = test system: rat skeletal myoblast L6 cells; design: method as in PMID 31303998; conditions: lead compound; cited from earlier work
Huh5-2 cells = test system: Huh5-2 cells; design: method as in PMID 31303998; conditions: lead compound; read-out: Huh5-2 (HCV Replicon 1b) CC50; cited from earlier work
[16] = test system: HCV GT 3a (strain S52) subgenomic replicon; design: method as in PMID 31303998; conditions: lead compound; read-out: Huh7.5-3a(S52) (HCV Replicon 3a) EC50; cited from earlier work
[17] = test system: HCV GT 4a (strain ED43) subgenomic replicon; design: method as in PMID 31303998; conditions: lead compound; read-out: Huh7.5-4a(ED43) (HCV Replicon 4a) EC50; cited from earlier work
[18] = test system: DENV serotype 2 (strain 16681) subgenomic replicon; design: method as in PMID 31303998; conditions: lead compound; read-out: Huh7-D2 (DENV-2 Replicon) EC50; cited from earlier work
[19] = earlier lead compounds, read-out: T. brucei EC50

SMILES | EC50 [1] [µM] | EC50 [3] [µM] | EC50 [4] [µM] | SI (CC50 for L6 cells / EC50 for T. brucei) [5] | EC50 [6] [µM] | EC90 [6] [µM] | EC50 [7] [µM] | CC50 at 6 days [8] [µM] | CC50 at 72 h [11] [µM] | EC50 ([2]; Hepatitis C virus, GT4A) [µM] | SI (CC50 for L6 cells / EC50 for T. cruzi) [12] | EC90 [7] [µM] | further results
CC1CCC2(NC(=O)N(CC(=O)NO)C2=O)c2ccccc21 [Compound 34, Ν-(hydroxy)-2-((4R,4′S)/(4S,4′R)-4′-methyl-2,5-dioxo-3′,4′-dihydro-2′H-spiro[imidazolidine-4,1′-naphthalene]-1-yl)acetamide] | 0.63 ± 0.08 | > 10 | > 10 | 335 | 0.67 ± 0.09 | 0.92 ± 0.23 | > 30 | > 200 | > 200 | – | – | – | fold more active against GT 4a than lead molecule V [2]: 2.5 fold; EC50 [2]: 0.14 ± 0.01 µM; CDI (HCV GT 1b (Con1); 1 μM 34 with 20 pM DCV): 1.09; CDI (HCV GT 1b (Con1); 2 μM 34 with 20 pM DCV): 0.91; coefficient of drug interaction (CDI) (HCV GT 1b (Con1); 34 in combination with daclatasvir (DCV)): ≈ 1; CC50 [9]: 224 ± 20 µM; EC50 [10]: 0.726 µM
O=C(CN1C(=O)NC2(CCC(c3ccccc3)CC2)C1=O)NO (stereo not shown) [Compound 36, N-Hydroxy-2-(2,4-dioxo-8-phenyl-1,3-diazaspiro [4.5]decan-3-yl) acetamide] | 0.75 ± 0.13 | > 10 | 4.64 ± 0.11 | 70 | 0.88 ± 0.1 | 1.18 ± 0.04 | > 30 | 60.8 ± 8.2 | 75.4 ± 8.46 | 0.39 ± 0.01 | – | – | –
O=C(CN1C(=O)NC2(CCCCC2c2ccccc2)C1=O)NO (stereo not shown) [Compound 37, N-Hydroxy-2-(2,4-dioxo-6-phenyl-1,3-diazaspiro [4.5]decan-3-yl) acetamide] | > 10 | > 10 | > 10 | 55 | 4.41 ± 0.22 | 5.92 ± 0.09 | > 30 | > 200 | > 10 | > 10 | – | – | T. brucei EC50 fold higher than that of 36 ([5]; 2-phenyl versus 4-phenyl cyclohexane ring): 5 fold; CC50 [9]: 246 ± 3 µM
CN1C(=O)N(CC(=O)NO)C(=O)C12CCC(c1ccccc1)CC2 (stereo not shown) [Compound 38, N-Hydroxy-2-(1-methyl-2,4-dioxo-8-phenyl-1,3-diazaspiro [4.5]decan-3-yl)acetamide] | 0.63 ± 0.01 | > 10 | 10.2 ± 0.18 | 220 | 0.1 ± 0.01 | 0.14 ± 0.01 | 6.25 ± 0.24 | 21.7 ± 3.9 | 43.1 ± 2.11 | 0.22 | 4 | 13.3 ± 0.3 | increase in activity against T. brucei relative to parent compound [5]: 9 fold
CN1C(=O)N(CC(=O)NO)C(=O)C12CCCCC2c1ccccc1 (stereo not shown) [Compound 39, N-Hydroxy-2-(1-methyl-2,4-dioxo-6-phenyl-1,3-diazaspiro [4.5]decan-3-yl)acetamide] | > 10 | > 10 | 4.62 ± 0.39 | 150 | 1.46 ± 0.06 | 1.75 ± 0.02 | > 30 | 217 ± 6 | > 10 | > 10 | – | – | –
CCN1C(=O)N(CC(=O)NO)C(=O)C12CCC(c1ccccc1)CC2 (stereo not shown) [Compound 40, N-Hydroxy-2-(1-ethyl-2,4-dioxo-8-phenyl-1,3-diazaspiro [4.5]decan-3-yl)acetamide] | 0.52 ± 0.08 | 6.67 ± 0.05 | 0.68 ± 0.03 | 1870 | 0.029 ± 0.001 | 0.055 ± 0.003 | 1.12 ± 0.03 | 54.3 ± 5.9 | 10.6 ± 0.12 | 0.31 ± 0.13 | 48 | 1.86 ± 0.04 | increase in activity against T. brucei relative to parent compound [5]: 30 fold
O=C(CN1C(=O)N(Cc2ccccc2)C2(CCC(c3ccccc3)CC2)C1=O)NO (stereo not shown) [Compound 41, N-Hydroxy-2-(1-benzyl-2,4-dioxo-8-phenyl-1,3-diazaspiro [4.5]decan-3-yl)acetamide] | > 10 | > 10 | > 10 | 440 | 0.009 ± 0.001 | 0.011 ± 0.001 | 0.34 ± 0.02 | 3.98 ± 0.32 | > 10 | > 10 | 12 | 0.74 ± 0.05 | increase in activity against T. brucei relative to parent compound [5]: 100 fold
O=C(CN1C(=O)N(Cc2ccccc2)C2(CCCCC2c2ccccc2)C1=O)NO (stereo not shown) [Compound 42, N-Hydroxy-2-(1-benzyl-2,4-dioxo-6-phenyl-1,3-diazaspiro [4.5]decan-3-yl)acetamide] | > 10 | 4.68 ± 0.23 | 1.37 ± 0.08 | 62 | 0.19 ± 0.01 | 0.237 ± 0.003 | 1.95 ± 0.05 | 11.9 ± 0.7 | 9.37 ± 0.182 | 0.45 ± 0.02 | 6 | 3.12 ± 0.12 | increase in activity against T. brucei relative to parent compound [5]: 23 fold; EC50 [5]: 0.191 ± 0.006 µM
CC(C(=O)NO)N1C(=O)NC2(CCC(c3ccccc3)CC2)C1=O (stereo not shown) [Compound 49, N-(Hydroxy)-2-(2,4-dioxo-8-phenyl-1,3-diazaspiro [4.5]decan-3-yl)propanamide] | > 10 | 7.98 ± 0.18 | > 10 | 270 | 0.88 | 1.42 ± 0.19 | > 30 | > 200 | > 10 | > 10 | – | – | EC50 [5]: 0.876 ± 0.051 µM; CC50 [9]: 233 ± 33 µM
CC(C(=O)NO)N1C(=O)N(C)C2(CCC(c3ccccc3)CC2)C1=O (stereo not shown) [Compound 53, N-(hydroxy)-2-(1-methyl-2,4-dioxo-8-phenyl-1,3-diazaspiro [4.5]decan-3-yl)propanamide] | > 10 | > 10 | 2.45 ± 0.22 | 590 | 0.154 ± 0.009 | 0.281 ± 0.006 | 8.5 ± 0.23 | 90.5 ± 7.3 | 100 ± 3.57 | 0.28 ± 0.02 | 11 | 11.9 ± 0.5 | –
O=C(CN1C(=O)NC2(CCc3ccccc32)C1=O)NO (stereo not shown) [III] | – | – | – | – | – | – | – | – | – | – | – | – | EC50 [13, 19]: 0.44 ± 0.08 µM
O=C(CN1C(=O)CNC2(CCCCCC2)C1=O)NO [II] | – | – | – | – | – | – | – | – | – | – | – | – | EC50 ([13]; read-out: Trypanocidal activity (T. brucei) EC50): 1.87 ± 0.08 µM
O=C(CN1C(=O)NC2(CCCCc3ccccc32)C1=O)NO (stereo not shown) [IV] | – | – | – | – | – | – | – | – | – | – | – | – | EC50 [13, 19]: 0.4 ± 0.04 µM
O=C1Cn2c(cc3ccccc32)C(=O)N1O [I] | – | – | – | – | – | – | – | – | – | – | – | – | EC50 (HCV): 126 ± 14.2 µM
O=C(CN1C(=O)NC2(CCCc3ccccc32)C1=O)NO (stereo not shown) [V] | – | – | – | – | – | – | – | – | – | – | – | – | EC50 [13, 19]: 0.71 ± 0.12 µM; EC90 ([13]; lead compound): 1.27 ± 0.02 µM; SI (CC50 for L6 cells / EC50 for T. brucei) ([13]; lead compound): 590; EC50 [14]: > 30 µM; EC90 [14]: > 30 µM; CC50 [15]: 419 ± 55 µM; CC50 (Huh5-2 cells): > 200 µM; EC50 [16]: 2.37 ± 0.17 µM; EC50 [17]: 0.38 ± 0.04 µM; EC50 [18]: 61.5 ± 3.86 µM
